# Experiments:
# AnKir1 [1] = molecular target: T1, AnKir1 (Anopheles gambiae, UniProt A0A075M2J8); test: thallium (Tl+) flux assay; type: cell-based
# Experimental: The thallium flux assay is an in vitro method of measuring conductance through a potassium ion channel. Potassium channels are also permeable to thallium ions. The modulation of a K^+ channel will thus increase or decrease thallium ion flow through the channel and thus, alter the observed fluorescence of a thallium-specific indicator dye.
# After 1 hr incubation at room temperature, the dye-loading solution was washed from the plates and replaced with 20 μL/well of assay buffer. The plates were transferred to a Hamamatsu Functional Drug Screening System 6000 (FDSS6000; Hamamatsu, Tokyo, Japan), where 20 μL/well of each of the test compounds in assay buffer was added and allowed to incubate with the cells for 20 min. After incubation, a baseline recording was collected at 1 Hz for 10 s (excitation 470±20 nm, emission 540±30 nm); a thallium stimulus buffer was then added (10 μL/well), and data were then collected for an additional 4 min. […] To ensure the small-molecule vehicle DMSO had no direct effect on AnKir1-dependent Tl^+ flux, the assay's tolerance to different doses of DMSO was evaluated. The robustness and reproducibility of the assay was determined by comparing Tl^+ flux through tetracycline-induced and tetracycline-free cells. The Z′ value was calculated as:
# Z′=1−(3SDp+3SDn)/|meanp+meann| where SD is standard deviation, and p and n are control and uninduced flux values, respectively. To compare the effect of DMSO on AnKir1-mediated Tl^+ flux, a one-way ANOVA was performed with a Tukey's multiple comparison test. Prism software (GraphPad Software) was used to generate CRC from Tl^+ flux. Half-inhibition concentration (IC50) values were calculated from fits using a four parameter logistic equation.
# Test compounds were transferred to daughter, 384-well polypropylene plates (Greiner Bio-One, Monroe, N.C.) with an Echo555 liquid handler (Labcyte, Sunnyvale, Calif.), and then diluted into assay buffer to generate a 2× stock in 0.6% DMSO (0.3% final). […] Concentration-response curves (CRCs) were generated by screening compounds at 3-fold dilution series (1 nM-30 μM).
# Tl^+ flux data were analyzed using Excel (Microsoft Corp, Redmond, Wash.) with XLfit add-in (IDBS, Guildford, Surrey, UK), OriginPro (Origin Lab, Northampton, Mass.), and GraphPad Prism (GraphPad Software, San Diego, Calif., USA) software. Raw data were opened in Excel and each data point in a given trace was divided by the first data point from that trace (static ratio) followed by subtraction of data points from control traces generated with vehicle controls. The slope of the fluorescence increase beginning 5 s after Tl^+ addition and ending 15 s after Tl^+ addition was calculated.
# To perform Tl+ flux assays, stably transfected T-Rex-HEK-293 cells expressing AnKir1 channels were cultured overnight in 384-well plates (20,000 cells/20 μL/well), black-walled, clear-bottomed BD Pure Coat amine-coated plates (BD, Bedford, Mass.) with a plating media containing DMEM, 10% dialyzed FBS and 1 μg/mL tetracycline. […] Following 1 hr incubation at room temperature, the dye-loading solution was washed from the plates and replaced with 20 μL/well of assay buffer.
# Ae. aegypti = test: topical toxicity bioassay in adult female Ae. aegypti; type: in vivo, Aedes aegypti; settings: 24 h
# Experimental: Topical toxicity bioassays in adult female Ae. aegypti (LVP and PR strains) were performed. […] A solvent-only treatment was included in each experiment as a negative control. Treated mosquitoes were transferred to small cages with access to 10% sucrose and held under rearing conditions for 24 h. The efficacy of a dose was measured as the percentage of treated mosquitoes in a cage that were flightless or dead at 24 h. Four to eight replicates of 10 mosquitoes were performed per dose. The ED50 values were determined using a non-linear curve fit analysis (log [inhibitor] vs. response variable-slope) in Prism 6 (Graphpad Software).
# Six replicate experiments of 10 mosquitoes each were performed.
# Drosophila melanogaster = test: whole plant or invertebrate; settings: for mortality in CAFE assay: 200 μM VU041, 700 μM VU937; for reduction of total volume of sucrose solution ingested: 100 μM fluphenazine, 200 μM VU041
# Experimental: A capillary feeding assay (CAFE) was used to quantify the volume of sucrose solution consumed over a period of time; it was performed essentially as described in W. W. Ja, G. B. Carvalho, E. M. Mak, N. N. de la Rosa, A. Y. Fang, J. C. Liong, T. Brummel, S. Benzer, Prandiology of Drosophila and the CAFE assay. Proceedings of the National Academy of Sciences of the United States of America 104, 8253-8256 (2007); published online EpubMay 15 (10.1073/pnas.0702726104). […] One adult fly was placed into a 2 mL glass vial with a screw lid that was pierced with a glass microcapillary tube having a truncated 200-0 pipette tip. The microcapillary tubes contained 5% (wt/vol) sucrose solution with a 5 μl mineral oil overlay to minimize evaporation. […] Concentrations of 100 μM dopamine and 100 μM fluphenazine were used to determine the influence of those agents on fly feeding. […] All dead flies were excluded from all time points of the study regardless of the time of death. Mean (n>25) values are shown in all figure panels, depicting total consumption.
# Times spent feeding in Kir1 and GFP genetic knockdown studies were compared to control values for each day using one-way ANOVA with a Dunns multiple comparisons post-test. Statistical significance for all studies was P<0.05.
# AnKir1 [2] = molecular target: T1, AnKir1; test: whole-cell patch clamp electrophysiology; type: cell-based
# Experimental: Patch electrodes were pulled from silanized 1.5 mm outer diameter borosilicate microhematocrit tubes using a P-1000 Flaming/Brown micropipette puller (Sutter Instrument, Novato Calif., USA). Electrode resistance ranged from 2-4 MΩ. Whole-cell currents were recorded under voltage-clamp conditions using an Axopatch 200B amplifier (Molecular Devices, Sunnyvale, Calif.). Electrical connections to the amplifier used Ag/AgCl wires and 3 M KCl/agar bridges. Electrophysiological data were collected at 5 kHz and filtered at 1 kHz. Data acquisition and analysis were performed using pClamp 9.2 software (Axon Instruments).
# Transiently transfected HEK-293T cells expressing AnKir1 were voltage-clamped in the whole-cell configuration of the patch clamp technique. The extracellular bath solution contained (in mM): 135 NaCl, 5 KCl, 2 CaCl2), 1 MgCl2, 5 glucose, 10 HEPES free acid, pH 7.4, 290 mOsm/kg H2O. The pipette solution contained (in mM): 135 KCl, 2 MgCl2, 1 EGTA, 10 HEPES free acid, 2 Na2ATP (Roche, Indianapolis, Ind.), pH 7.3, 275 mOsm. Cells were voltage clamped at −75 mV, stepped to −120 mV for 200 msec, and then ramped to 120 mV at a rate of 2.4 mV/msec. Concentration-response curves (CRCs) were constructed by measuring the effects of increasing doses of inhibitors on AnKir1 currents at −120 mV. All recordings were made at room temperature (20-23° C.).
# [3] = whole-cell patch clamp, HEK-293T cells
# T1 sequence (A0A075M2J8 1-555): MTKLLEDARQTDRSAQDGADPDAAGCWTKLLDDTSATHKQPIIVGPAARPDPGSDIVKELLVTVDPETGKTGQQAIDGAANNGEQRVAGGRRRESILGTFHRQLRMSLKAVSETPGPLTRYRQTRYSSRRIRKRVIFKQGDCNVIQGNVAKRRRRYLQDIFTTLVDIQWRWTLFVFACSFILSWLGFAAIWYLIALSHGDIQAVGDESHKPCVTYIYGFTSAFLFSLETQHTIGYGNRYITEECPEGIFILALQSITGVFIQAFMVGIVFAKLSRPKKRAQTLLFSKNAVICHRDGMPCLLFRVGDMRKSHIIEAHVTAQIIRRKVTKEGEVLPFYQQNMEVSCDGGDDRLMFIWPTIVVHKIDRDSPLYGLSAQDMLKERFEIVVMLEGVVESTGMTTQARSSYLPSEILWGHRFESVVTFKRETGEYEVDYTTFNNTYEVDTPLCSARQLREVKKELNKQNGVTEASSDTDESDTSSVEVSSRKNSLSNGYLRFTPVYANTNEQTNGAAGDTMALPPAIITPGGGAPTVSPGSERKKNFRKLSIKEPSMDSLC
SMILES,"IC50 (AnKir1 [1]; SAR libraries, read-out: AnKir1 IC50) [µM]","IC50 (AnKir1 [1]; means (n = 3), selectivity panel, read-out: IC50 μM (95% Cl)) [µM]","approximate ED50 (Ae. aegypti; topical, LVP strain) [μg/mg mosquito]",mortality in CAFE assay (Drosophila melanogaster),reduction of total volume of sucrose solution ingested (Drosophila melanogaster; 1 day PE) [fold],reduction of total volume of sucrose solution ingested (Drosophila melanogaster; 2 days PE) [fold],reduction of total volume of sucrose solution ingested (Drosophila melanogaster; 3 days PE) [fold],reduction of total volume of sucrose solution ingested (Drosophila melanogaster; 4 days PE) [fold],"EC50 (Drosophila melanogaster; Drosophila melanogaster, 96 h, read-out: EC50 of reduction of sucrose consumption) [µM]",maximal reduction of volume of sucrose consumption (Drosophila melanogaster; concentration-dependent),Hill coefficient value (AnKir1 [2]; whole-cell patch clamp),IC50 (AnKir1 [2]; [3]) [µM],"AnKir1 IC50 (μM) (AnKir1 [1]; SAR libraries, listed as 18)","AnKir1 IC50 (μM) (AnKir1 [1]; SAR libraries, listed as Compound 18)",topical toxicity (Ae. aegypti; adult females),activity less than VU041 (AnKir1 [2]; patch clamp) [fold],IC50 (AnKir1 [2]; whole-cell patch clamp) [µM]
"O=C(Cn1nc(C(F)(F)F)c2c1CCCC2)N1CCCc2ccccc21 [VU041, 1-(3,4-dihydroquinolin-1(2H)-yl)-2-(3-(trifluoromethyl)-4,5,6,7-tetrahydro-1H-indazol-1-yl)ethan-1-one]",2.3,2.5,~3.24,approximately 30%,2.6,2.7,2.9,3.2,68,up to 3.2 fold,1.3,0.496,,,,,
O=C(Cn1nc(C(F)(F)F)c2c1CCCC2)NC1CCC1 [VU937],,,,less than 10%,,,,,,,,29.7,inactive,not tolerated,not toxic,60,29.7

# — patent US11632953B2, “Method for controlling hematophagous or sap-feeding arthropods” (Board of Supervisors of Louisiana State University and …, priority 2016, dated 2023)
